Assay results published in US20160029628A1, “COMPOUNDS, COMPOSITIONS, AND METHODS FOR REPELLING AN INSECT FROM AN AREA,ARTICLE, AND/OR STRUCTURE” (BAYER CROPSCIENCE LP, priority 2013, published 2016).

Experiments:
honeybees = assay: Honeybee repellency at feeding stations, repellent in 50% sucrose solution; assay type: in vivo
Experimental: FIG. 1 describes the feeding station arrangement (A and B) for the honeybee repulsion experiments described herein. As set forth in FIG. 1, panel (A) sets forth the bee cage positions on the left portion of panel (A) with the randomized feeding station positions on the right portion of panel (A). Panel (B) sets forth an alignment of the randomized feeding station positions with a distance of two meters between feeding stations. A total of eight feeding stations were evaluated at a ten meter distance in front of the respective bee hives. The feeding stations were placed two meters apart from one another.
Honeybees were trained to deep feeders (eight positions), each containing a 50% sucrose solution for one day. After the honeybees were trained to each feeder, the 50% sucrose feeder at randomized positions 1-8 was replaced with a shallow feeder containing a combination of repelling compounds and a 50% sucrose solution according to Table 3. In accordance with FIGS. 5 and 6, 2% by weight of Camphor oil (T4), Ajowan oil (T5), Camphor powder (T6), Rosemary oil (T7), and 2-Decanone (T8) in combination with a 50% sucrose treatment were added to feeders on day two.
Table 3 describes active agents evaluated for bee repulsion and their randomized feeding station positions. As described in Table 3, T1 (control), T2 (control), T3 (control), T4 (Camphor oil), T5 (Ajowan oil), T6 (Camphor powder), T7 (Rosemary oil), and T8 (2-Decanone).
FIG. 5 evaluates the number of bees visiting a respective feed station over a time interval. FIG. 6 sets forth the mean number of honeybees visiting feeding station over a period of four hours.

[1] = Stability test of Poncho 600 with α-terpineol, clothianidin content by HPLC; assay type: physicochemical; conditions: combined with alpha-terpineol; up to 54° C. for eight days
Experimental: Table 5 describes a stability test with a combination of α-terpineol and Poncho 600 evaluated at room temperature, 40° C., and 54° C. at zero time, 2 days, and 8 days as confirmed by HPLC.

[2] = Stability test of Poncho 600 with Eugenol, clothianidin content by HPLC; assay type: physicochemical; conditions: combined with Eugenol; up to 54° C. for seven days
Experimental: Table 4 describes a stability test with a combination of Eugenol and Poncho evaluated at room temperature, 40° C., and 54° C. at zero time, 3 days, and 7 days as confirmed by high performance liquid chromatography (HPLC).

Structure (SMILES) | repellency over the full 4 hour assessment period (honeybees; 2% by weight with 50% sucrose, 4 hours) | repellency at 24 hours (honeybees; 2% by weight with 50% sucrose) | repellency at 24 hours (honeybees; 2% by weight with 50% sucrose, listed as 2-Decanone) | repellent effect relative to comparators (honeybees; relative to camphor oil, ajowan oil, camphor powder, or rosemary oil, FIGS. 5-6) | chemical stability of clothianidin content [1] | chemical stability of clothianidin content [2]
CCCCCCCCC(C)=O [Compound 2-decanone, 2-decanone] | highly repellent | still repellent | exhibited repellency | larger repellent effect | – | –
CN/C(=N\[N+](=O)[O-])NCc1cnc(Cl)s1 [clothianidin] | – | – | – | – | exhibited chemical stability | exhibited chemical stability
